This note sets out measurements from patent US20240002425A1, “NOVEL AMINOALKYL GLUCOSAMINIDE 4-PHOSPHATE DERIVATIVE” (DAIICHI SANKYO COMPANY, LIMITED, priority 2020, published 2024).

Format in all cases: in vivo, mouse
For assay [1], the system named is cervical lymph node immune cells. Kind of assay: Cry j 1-specific cell-mediated immunity assay (cervical lymph node cells). The conditions noted are these: cervical lymph node cells after sublingual administration with Japanese cedar pollen antigen. More on the design: IFN-7 produced by Cry j 1 stimulation / IL-4 produced by Cry j 1 stimulation: unit not given here. On the procedure: Cervical lymph node was collected, then pooled for each group, and ground in PBS (1% BSA). The resultant was passed through a 70 μm strainer. […] Cells were recovered with RPMI/FBS/ps, and the number of cells was prepared to 2×5×10^6 cells/mL.

Assay [2] has as its system mast cell degranulation reaction mediated by anti-Cry j 1 IgE. Briefly: Suppression of mast cell degranulation by immune serum-derived IgG. Particulars: IgG from serum of SLIT mice, 200 ng/mL Cry j 1 stimulation; vs No-SLIT and Japanese Cedar Pollen SLIT groups (FIG. 17). Here is the method: IgG was purified from 200 μL of serum of each mouse individual of the allergen immunotherapy model in accordance with the protocol of Protein G HP spin trap (Cytiva, 28-9031-34). The solvent in the purified IgG was replaced with 50 μL of Tyrode's solution using Vivaspin 500, 10 kDa MWCO Polyethersulfone (Cytiva, 28-9322-25). Cry j 1 (2×10×200 ng/mL, 1.5 μL, Tyrode's solution) was added to the purified IgG (13.5 μL, Tyrode's solution), and the mixture was left standing at room temperature for 1 hour in the dark. The mast cells sensitized with anti-Cry j 1 IgE were treated with 10 μL of this specimen as a test substance, and the amount of the mast cell degranulation was measured (final concentration: 200 ng/mL, Cry j 1 stimulation).

For assay [3], the system named is Japanese cedar pollen antigen (Cry j 1). Kind of assay: Immunostimulatory effect on Japanese cedar pollen antigen by sublingual administration (anti-Cry j 1 IgG or IgA). Particulars: sublingual with Japanese cedar pollen antigen. Here is the method: The compound described in Example 24 was used to study its immunostimulatory effect on a Japanese cedar pollen antigen by sublingual administration.
Allergen sensitization was performed by subcutaneously administering 50 μL of Japanese cedar pollen antigen extracts (allergen scratch extracts “Torii” Japanese cedar pollen, Torii Pharmaceutical Co., Ltd.) to the mouse tail root 3 and 1 weeks before the start of sublingual administration. Blood was collected 4 days after the second sensitization, and anti-Cry j 1 IgG was measured in accordance with the subsequent section. Mice were grouped such that their measured values were evenly distributed among the groups. Sublingual administration (sublingual allergen immunotherapy model) was started from 3 days thereafter.
The antigen used was a Japanese cedar pollen antigen (5000 JAU CEDARCURE®, Torii Pharmaceutical Co., Ltd.) dissolved in 100 μL of PBS. The compound of Example 24 was dissolved in injectable water (Otsuka Pharmaceutical Co., Ltd.) to prepare a 5 mg/mL solution. The antigen and the compound of Example 24 were mixed in equal amounts immediately before administration.
Each mouse was allowed to refrain from eating and drinking from 1 hour before sublingual administration. […]
25 μL of 10 μg/mL ImmunoPure Streptavidin (Thermo Fisher Scientific Inc., Cat No. 21125) was added to each well of 96 Well Micro Plate (Corning, Inc., Cat No. 3690), which was then left standing overnight at 4° C. […] The plate was left standing at room temperature for 10 minutes, and 30 μL of TMB Stop Solution was then added to each well, followed by the measurement of absorbance at 450 nm.
Positive serum was used as a standard specimen of serum, and anti-Cry j 1 IgG or IgA contained therein was set to 1000 units/mL. […] An evaluation specimen was diluted 1000-fold with an ELISA solution and measured, and the unit value of anti-Cry j 1 IgG or IgA in the evaluation specimen was determined using the calibration curve. […]

Consider `CCCCCCCCCCC[C@H](CC(=O)N[C@@H](CO[C@@H]1O[C@H](CO[C@]2(C(=O)O)C[C@@H](O)[C@@H](O)[C@@H]([C@H](O)CO)O2)[C@@H](OP(=O)(O)O)[C@H](OC(=O)C[C@@H](CCCCCCCCCCC)OC(=O)CCCCCCCCC)[C@H]1NC(=O)C[C@@H](CCCCCCCCCCC)OC(=O)CCCCCCCCC)CC(=O)O)OC(=O)CCCCCCCCC.CNC[C@H](O)[C@@H](O)[C@H](O)[C@H](O)CO.CNC[C@H](O)[C@@H](O)[C@H](O)[C@H](O)CO.CNC[C@H](O)[C@@H](O)[C@H](O)[C@H](O)CO.CNC[C@H](O)[C@@H](O)[C@H](O)[C@H](O)CO` [Example 24, Tetrameglumine (3R)-3-{[(3R)-3-(decanoyloxy)tetradecanoyl]amino}-4-({3-O-[(3R)-3-(decanoyloxy)tetradecanoyl]-2-{[(3R)-3-(decanoyloxy)tetradecanoyl]amino}-2-deoxy-6-O-(3-deoxy-α-D-manno-oct-2-ulopyranonosyl)-4-O-phosphono-β-D-glucopyranosyl}oxy)butanoate], for which, in assay [1] (44 hours culture (FIG. 12)), the “IL-10 produced by Cry j 1 stimulation” value is “strongly induced”. Also, the “IFN-7 produced by Cry j 1 stimulation” value in assay [1] (44 hours culture (FIG. 13)) is recorded as not above 9.77. Moreover, the “IL-4 produced by Cry j 1 stimulation” value in assay [1] (44 hours culture (FIG. 14)) is not above 9.77. The “mast cell degranulation with IgG purified from mouse serum” value in assay [2] is on record as “suppressed”. The “anti-Cry j 1 IgA in nasal wash” value in assay [3] (5 weeks (FIG. 11)) is listed as “induced at a high level”. Moreover, the “anti-Cry j 1 IgG in serum” value in assay [3] (vs No-SLIT and Japanese Cedar Pollen SLIT groups (FIG. 9)) was “induced at a higher level”. Moreover, in assay [3] (vs No-SLIT and Japanese Cedar Pollen SLIT groups (FIG. 10)), the “anti-Cry j 1 IgA in serum” value is recorded as “induced at a higher level”.
